Reference: article PMC4057896 (Journal of molecular biology, 2014)
“Also recorded” adds a separate entry of the source.

Tests used:
[1] = system: hexon trimer; experiment: Native MS of endogenous hexon-pVIn complexes from heat-disrupted virions; type: binding, human adenovirus (Ad5F35)
[2] = system: hexon trimer; experiment: Native MS of hexon-pVIn reconstituted from purified hexon and synthetic pVIn; type: binding, human adenovirus (Ad5 hexon)
[3] = system: hexon trimers; details: in vitro; ref [15]; cited from earlier work
[4] = 150 mM ammonium acetate pH 5, released fraction
[5] = 1:2 hexon:pVIn, pH range 4–9, native MS, triplicate

| Substance | binding of pVIn to hexon trimer at pH 5 [1, 4] | pVIn molecules/hexon trimer at pH 5 [1, 4] | binding of pVIn to hexon trimer at pH 9 ([1]; 150 mM ammonium acetate pH 9, released fraction) | strength of hexon-pVIn interaction at cytosolic pH [2, 5] | strength of hexon-pVIn interaction at endosomal pH [2, 5] | dissociation of hexon-pVIn towards pH 8 ([2]; 1:2 hexon:pVIn, pVIn 1 µM, hexon trimer 0.5 µM, native MS, 150 mM ammonium acetate, triplicate) | residual endogenous pVIn bound to purified hexons ([2]; hexons isolated from virus-infected cells, no synthetic pVIn added, native MS) | affinity for hexon trimers [3] |
| --- | --- | --- | --- | --- | --- | --- | --- | --- |
| MEDINFASLAPRHGSRPFMGNWQDIGTSNMSGG [pVIn] | nearly complete binding; also recorded: fully retained on hexon trimers | 3 pVIn molecules/hexon trimer | only free hexon trimers were recovered and detected | relatively weak | strongest | near-complete dissociation | approximately 3 % of maximum occupancy |  |
| pVI: 250 aa precursor of human adenovirus minor capsid protein VI |  |  |  |  |  |  |  | high affinity; also recorded: nanomolar affinity |
